Results published in US8871741B2, “Inhibition of TNF-α induced activation of NFKB by pentosan polysulfate” (Icahn School of Medicine at Mount Sinai, priority 2010, dated 2014).
“Also recorded” adds a separate entry of the source.

Assays:
[1] = test system: MMP-2/MMP-9; assay: Net MMP activity in aortic extracts, synthetic colorimetric substrate; format: in vivo, rabbit; settings: aortic arch extracts, WHHL rabbits treated with PPS; P<0.05
Description: MMP activity in aortic extracts and conditioned media from monocytes was assessed, as previously described (Jacot T A, et al., Lab Invest. 1996; 75:791-79). Briefly, aortic segments were homogenized and extracted in RIPA buffer (25 mM Tris, pH 7.4, 150 mM KCl, 5 mM EDTA, 1% Nonidet P-40, 0.5% sodium deoxycholate, and 0.1% SDS). Insoluble material was precipitated by centrifugation, and soluble extracts were collected and stored at −20° C. for further analysis. For in vitro experiments, cell supernatants were centrifuged to remove cellular debris, and diluted appropriately to normalize for cell number. Aortic extracts and conditioned media were then mixed with sample buffer (1% SDS, 0.08 M Tris pH 6.8, 4% glycerol, and 0.006% bromophenol blue), and loaded onto a 10% gelatin polyacrylamide gel, and processed as described (Jacot T A, et al., Lab Invest. 1996; 75:791-79). For reverse zymography, samples were loaded onto a 15% gelatin polyacrylamide gel containing 0.5% porcine gelatin and 6 μg recombinant gelatinase A, and processed as described (Elliot S J, et al., J Am Soc Nephrol. 1999; 10: 62-68).
MMP-2/MMP-9 net activity in aortic extracts was evaluated by using a synthetic colorimetric substrate [Ac-Pro-Leu-Gly-(2-mercapto-4-methylpentanoyl)-Leu-Gly-Oet; Calbiochem, Cambridge, Mass.], according to the manufacturer's directions.

[2] = test system: TNFα mRNA; assay: PCR of TNFα mRNA in kidney; format: in vivo, mouse; settings: PPS treated 22 month-old diabetic mice, up to 40 PCR cycles
Description: mRNA levels were corrected by the levels of β-actin or GAPDH mRNA. The expression of TNFα mRNA in kidney was determined by both a real time and a regular PCR using the primer of forward, 5′-[…]-3′ (SEQ ID NO: 17), reverse, 5′-[…]-3′ (SEQ ID NO: 18). GAPDH and β-actin mRNA levels were measured in the same sample.

[3] = test system: MCP-1 and RANTES; assay: TNFα stimulated MCP-1 and RANTES production by proximal tubular cells, ELISA; format: cell-based, mouse; settings: PPS 200 μg/ml pretreatment, TNFα 10 ng/ml, p<0.01 vs. TNFα alone
Description: A proximal tubular cell line obtained from mice transgenic for SV40 T antigen was grown in DMEM containing 10% FBS. For the measurement of TNFα-stimulated gene expression, 1×10^5 proximal tubular cells were transferred to each well of a 6-well-plate. After placing the cells in 0.1% FBS medium for 24 hours, 10 ng/ml of TNFα was added to test wells. Total RNA was isolated from all wells 4 hours later. MCP-1, RANTES, CXCL1, MIP-2, ICAM-1, and iNOS mRNA levels were determined by real-time PCR as described above and corrected by β-actin mRNA levels. TNFα stimulated MCP-1 and RANTES production and release into the medium was measured in TNFα (10 ng/ml) treated and control cells at 24 hours. The amount of MCP-1 or RANTES in the medium was measured by ELISA (Invitrogen Corporation (Carlsband, Calif.).
To determine the effect of PPS on TNFα induced upregulation of proinflammatory genes, proximal tubular cells were pre-treated with PPS (200 μg/ml) for 1 hour before the addition of TNFα (10 ng/ml). MCP-1, RANTES, CXCL1, MIP-2, ICAM-1, and iNOS mRNA levels were determined 4 hours later by real-time PCR. MCP-1 and RANTES production was also measured.

pentosan polysulfate [PPS]
Net MMP-2/MMP-9 activity, reduction compared to water-treated animals [1]: 27.74±4.32% | TNFα mRNA expression in the kidneys [2]: completely prevented the upregulation; also recorded: absent | TNFα stimulated MCP-1 and RANTES protein production [3]: decreased
